# Experimental data published in US9974870B2, “Compositions and methods for treatment and imaging using nanoparticles” (Washington University, priority 2014, dated 2018).
# Where two headings read alike, the source gives them in different places. Non-standard residues stand in square brackets, D forms with d. Residues, ends and D or L forms follow the SMILES beside them. Primed or numbered codes have the meaning given here. *: point of attachment. DOTA = O=C(O)CN1CCN(CC(=O)O)CCN(CC(=O)*)CCN(CC(=O)O)CC1; DTPA′ = chelating agent complexing 111In or 64Cu; Tyr(3-I) = N[C@@H](Cc1ccc(O)c(I)c1)C(=O)O; Orn = NCCC[C@H](N)C(=O)O; Ahx = NCCCCCC(=O)O
# Experiments:
# caspase-3 = biological target: T1, caspase-3 (Homo sapiens, UniProt P42574); assay: Caspase-3 mediated hydrolysis, enzyme kinetics by radio-HPLC; assay type: biochemical; details: caspase-3 290 pM, 37° C., pH 7.4
# T1 construct: purchased Cal Biochem
# T1 sequence (P42574 29-175 limits assumed): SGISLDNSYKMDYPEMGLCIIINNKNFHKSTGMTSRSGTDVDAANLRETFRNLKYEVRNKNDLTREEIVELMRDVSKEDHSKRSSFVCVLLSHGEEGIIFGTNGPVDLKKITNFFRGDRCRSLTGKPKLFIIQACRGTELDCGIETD
# T1 sequence (P42574 176-277 limits assumed): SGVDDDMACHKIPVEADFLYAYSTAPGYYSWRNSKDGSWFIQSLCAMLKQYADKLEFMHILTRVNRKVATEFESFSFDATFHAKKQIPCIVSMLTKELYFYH
# Protocol: However, the dimer readily converts back to single molecules under the high reducing conditions such as used to prepare the ^99mTc chelate. Kinetic analysis of caspase-3 activation with [^125I]LS370 using a radionuclide detector (radio-high-performance liquid chromatography) gave a KM and kcat of 15±3 1 μM and […], respectively.
# [^125I]LS370 was dissolved in caspase buffer {100 mM NaCl, 50 mM 4-(2-hydroxyethyl)-1-piperazineethanesulfonic acid, 10 mM DTT, 1 mM ethylenediaminetetraacetic acid, 10% glycerol, and 0.1% 3-[(3-cholamidopropyl) dimethylammonio]-1-propanesulfonate, pH 7.4} at concentrations varying from 2.5 to 20 μM. […] These solutions were allowed to react at 37° C. for 180 min and were sampled every 30 min. Substrate hydrolysis was monitored by radio-high-performance liquid chromatography (Vydac, C-18, 4.6×250 mm, 1 ml/m, A=H2O, 0.1% TFA, B=ACN, 0.1% TFA; 10-90% B, 30 min, linear gradient) of these time point samples. Comparison to a standard caspase-3 substrate (Ac-DEVD-pNA) and calculation of the enzyme kinetic parameters were carried out as previously described.
# MDA-MB-231 cells = assay: Cell uptake and efflux studies; assay type: cell-based, human; details: for cell uptake: untreated MDA-MB-231 cells, 2 h postincubation at 37° C.
# Source text: The goals of the cell-uptake studies were to (1) assess any changes in the structure-activity relationship resulting from the modular and responsive probe design and (2) evaluate the retention of the iodine containing hydrophobic peptide moiety in treated and untreated cells. Metastatic human breast MDA-MB-231 cells were used to evaluate whether the amino acid sequence modulation would enhance internalization, and how the probe would respond (intracellular) postchemotherapy. In the untreated cells, there was a higher uptake (P<0.001) of [^125I]LS734 (3.6±0.5) than [^125I]LS370 (0.3±0.3) at 2 h postincubation at 37° C. (FIG. 22A). […] The amount of iodinated fraction released by the untreated and treated cells at 3 h (post 2 h incubation and removal of excess activity) was used as a measure of the efflux activity.
# MDA-MB-231 cells used for the uptake and efflux assay were grown on 24-well tissue culture plates until they were 80-90% confluent with […] cells per well. […] The experimental treatment group of cells was treated with 10 ng/ml of SN-38 (7-ethyl-10-hydroxy-camptothecin, Sigma Aldrich) for 24 h. Then, the SN-38 was removed, and the second chemotherapeutic drug, UCN-01 (Sigma Aldrich), was introduced at a concentration of […] in 0.1% BSA per well. At this point, respective radioactive solutions ([^125I]LS734 or [^125I]LS370, 0.02 μg per well; specific activities: [^125I]LS370-40×10^6 MBq/mmol; [^125I]LS734-10×10^6 MBq/mmol) were added to treated and control groups. The solutions were added drop-wise into the wells and gently mixed to ensure homogeneous distribution. The final volume per well was 240 μl, and the plates were incubated at 37° C. (5% CO2) for 2 h. After incubation, the supernatant (fraction 1) was collected, and the cells were washed twice with 250 μl of cold serum-free media. […] Fraction 2 represents the cell efflux, which is the amount of radioactivity released from cells after the 2 h uptake. […] The radioactivity in each fraction was measured in a well counter (Packard II gamma counter).
# [1] = Tissue biodistribution in tumor-bearing Balb/c mice; assay type: in vivo; details: female, Balb/c, mouse, iv, 0.185 MBq, total radioactivity, 1 h post injection; for tissue uptake at 1 h: thyroid
# Protocol: (§1) The structure-activity relationship was evaluated in vivo by performing a tissue biodistribution study in naive (FIG. 26) and tumor-bearing Balb/c mice (FIG. 23). […] The tumor/blood ratios for both [^125I]LS370 and [^125I]LS734 was 0.6±0.03. The tumor/muscle ratios were similar as well but higher than the tumor/blood ratios, [^125I]LS734 (2.2±0.1) and [^125I]LS370 (2.1±0.3). Thyroid uptake was 73±21 and 115±73 for [^125I]LS370 and [^125I]LS734, respectively.
# (§2) All animal studies were conducted according to guidelines on the humane care and use of laboratory animals under protocols approved by the Animal Studies Committee at Washington University School of Medicine. For tissue biodistribution studies, syngeneic breast tumor models were prepared via bilateral orthotopic implantation of luciferase-transfected 4T1 mouse mammary carcinoma cells (4T1luc, 5×10^5 cells per tumor) in the mammary fat pads of 6-week-old, female Balb/c mice (NCI, Frederick, Md., USA). Studies were conducted when the tumors reached about 3 mm maximum diameter (−10 days). Healthy female Balb/c mice (n=4 per time point) were anesthetized with 1-2% vaporized isoflurane and injected via tail vein with 0.185 MBq of [^125I]LS370 or [^125I]LS734 (specific activities: [^125I]LS370-40×10^6 MBq/mmol; [^125I]LS734-10×10^6 MBq/mmol). At 1 h post injection, mice were killed. Organs of interest were removed and blotted dry. The radioactivity was measured in a gamma counter (Packard II gamma counter). Diluted standard doses (1:100) were prepared and counted along with the samples. Data points were corrected for radioactive decay. The percent injected dose per gram of tissue (% ID/g) was calculated.
# 4T1luc tumors = assay: as above; assay type: in vivo; details: at 1 h after tail vein injection
# Protocol: as §1, §2
# MMP9 [2] = biological target: T2, MMP9 (Homo sapiens, UniProt P14780); assay: In vitro MMP9 cleavage of ^111In from non-radioactive gold nanoparticle probe; assay type: biochemical
# T2 sequence (P14780 94-707, species assumed): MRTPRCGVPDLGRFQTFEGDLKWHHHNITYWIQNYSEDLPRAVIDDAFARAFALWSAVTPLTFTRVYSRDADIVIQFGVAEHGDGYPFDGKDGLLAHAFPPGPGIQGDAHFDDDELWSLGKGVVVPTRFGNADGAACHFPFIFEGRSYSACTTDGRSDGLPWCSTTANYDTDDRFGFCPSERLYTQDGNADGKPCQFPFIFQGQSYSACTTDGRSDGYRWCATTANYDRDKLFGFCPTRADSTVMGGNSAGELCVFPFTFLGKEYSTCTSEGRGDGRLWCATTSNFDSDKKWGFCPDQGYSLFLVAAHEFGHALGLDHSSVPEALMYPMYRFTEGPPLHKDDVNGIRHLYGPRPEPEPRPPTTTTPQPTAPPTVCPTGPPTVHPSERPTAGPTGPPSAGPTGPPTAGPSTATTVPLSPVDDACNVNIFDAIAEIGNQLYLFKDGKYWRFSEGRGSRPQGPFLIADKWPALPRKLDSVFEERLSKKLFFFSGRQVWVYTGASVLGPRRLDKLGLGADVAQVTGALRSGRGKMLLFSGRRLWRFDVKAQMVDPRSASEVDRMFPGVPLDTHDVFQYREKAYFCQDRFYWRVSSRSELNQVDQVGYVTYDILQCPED
# Protocol: (§3) To further validate the specificity of the activation, an identical experiment as the one just described was performed with an ^111In-labeled non-radioactive gold nanoparticle probe, similar to a radioactive nanoparticle previously reported. An initial in vitro validation was performed; when incubated with MMP9 for 48 hours, 48% ^111In was cleaved from the nanoparticle compared to only 16% without MMP9. With this singly-labeled probe, an alternative in vivo ratiometric imaging approach was performed (FIG. 18A). Rather than compare the ratio between two gamma energy channels, uptake intensity ratios between the lungs and kidneys or bladder were quantified. Importantly, clear distinctions were observed between the MMP9 and control groups. […] Differences were also observed 5 hours after injection (FIG. 18C), where the bladder/lung ratio remained elevated in the MMP9-incubated condition (0.19±0.15) compared to the control (0.03±0.003).
# The dual-radiolabeled nanocrystal suspension was separated into 50 μL samples containing 20 ng MMP9 and incubated at 37° C. for 9 hours (along with control that was incubated without MMP9). 50 μL (˜80 μCi ^199Au and 40 μCi ^111In) was then intratracheally injected into C57 Black6 mice and two-channel SPECT imaging was performed as described above. […]
# MMP9 [3] = biological target: T2, MMP9; assay: Organ ratiometric SPECT imaging (kidney/lung, bladder/lung) after MMP9 pre-incubation; assay type: in vivo, C57 Black6 mice
# Protocol: as §3
# The dual-radiolabeled nanocrystal suspension was separated into 50 μL samples containing 20 ng MMP9 and incubated at 37° C. for 9 hours (along with control that was incubated without MMP9). 50 μL (˜80 μCi ^199Au and 40 μCi ^111In) was then intratracheally injected into C57 Black6 mice and two-channel SPECT imaging was performed as described above. In another experiment, a similar protocol was performed with the non-radioactive gold NP core functionalized with an ^111In-labeled, MMP9-cleavable peptide. Briefly, 10 mL of 10 nm diameter gold nanoparticles (Sigma Aldrich) was centrifuged at 10 k g-force for 70 minutes, supernatant was removed, the pellet was resuspended in 1 mL of ultrapure water containing 2.2 mg mPEG-SH (MW=5000) and 1.0 mg pMMP9 peptide, and shaken overnight. Suspension was again centrifuged at 10 k g-force, supernatant removed, and the pellet was resuspended in 500 μL 0.1 M NH4OAc buffer (pH 5.5). Then 15 μL ^111InCl (5.23 mCi) was added and shaken at 45° C. for 90 minutes. Suspension was centrifuged at 10 k g-force for 90 minutes, supernatant removed, and the pellet containing 2.96 mCi was resuspended in 500 μL buffer. 50 μL aliquots with or without 10 ng MMP9 were prepared and shaken at 37° C. for 16 hours. 50 μL (˜230 μCi ^111In) was then intratracheally injected into C57 Black6 mice (n=4/group) and SPECT imaging was performed using the 245 keV channel immediately upon injection and 5 and 24 hours later.
# MMP9 [4] = biological target: T2, MMP9; assay: In vitro MMP9 experiment with ^64Cu-labeled peptide-functionalized gold NPs; assay type: biochemical
# Protocol: Once surface-functionalized with the peptide and PEG, an experiment was performed in PBS in order to characterize the ability of MMP9 to cleave the peptide present on the nanoparticle surface. In this experiment, ^64Cu was chelated to DTPA on the peptide attached to the NP. The suspension was incubated with MMP9 for 1.5 hours and then the supernatant solution was separated from the NPs by centrifugal filtration. […] To further confirm the presence of the cleaved peptide, high performance liquid chromatography (HPLC) was performed on the supernatant solutions, and co-registered UV and radioactive peaks associated with the radiolabeled peptide fragment were observed (FIG. 6).
# 1 mL of peptide-functionalized gold NPs was centrifuged, supernatant decanted, and resuspended in 0.1 M NH4OAc. 110 μCi ^64Cu, provided by the Washington University Cyclotron Facility, was added to the NP pellet and shaken at 45° C. for 1 hour. Radiolabeled NPs were purified from nonchelated ^64Cu by centrifugation. Then NP suspensions were incubated with 20 ng MMP9 for 1.5 hours, after which 450 μL PBS was added and supernatant was purified from the NPs by centrifugation filtration using a 10 k MW filter. Supernatant and NP pellets were counted for radioactivity in a PerkinElmer 1480 Automatic Gamma Counter.
# [5] = MMP9-incubated probe, immediately upon injection
# [6] = control probe without MMP9, immediately upon injection
compound,measurement,setting,value
"CC(=O)N[C@@H](CC(=O)O)C(=O)N[C@@H](CCC(=O)O)C(=O)N[C@H](C(=O)N[C@@H](CC(=O)O)C(=O)Nc1ccc([N+](=O)[O-])cc1)C(C)C [Ac-DEVD (SEQ ID NO:2)-pNA, Ac-DEVD-pNA]",Km,caspase-3,11 µM
same,kcat,caspase-3,2.4 M/s
CC(=O)NCCCCCC(=O)N[C@@H](Cc1ccc(O)c(I)c1)C(=O)NCCCCCC(=O)N[C@@H](CC(=O)O)C(=O)N[C@@H](CCC(=O)O)C(=O)N[C@H](C(=O)N[C@@H](CC(=O)O)C(=O)NCC(=O)N[C@@H](CCCCN)C(=O)NCC(=O)N[C@@H](CS)C(N)=O)C(C)C [[^125I]LS370] (Ac-[Ahx][Tyr(3-I)][Ahx]DEVDGKGC-NH2),cell uptake,MDA-MB-231 cells,0.3±0.3
same,tissue to tissue ratio at 1 h,"[1]; 4T1luc tumor / blood, read-out: tumor/blood ratio",0.6 ± 0.03
same,tissue to tissue ratio at 1 h,"[1]; 4T1luc tumor / muscle, read-out: tumor/muscle ratio",2.1 ± 0.3
same,tissue uptake at 1 h,[1],73 ± 21 %ID/g
CC[C@H](C)[C@H](NC(=O)[C@H](C)NC(=O)[C@H](CC(C)C)NC(=O)[C@H](Cc1ccc(O)c(I)c1)NC(C)=O)C(=O)NCCCCCC(=O)N1CCC[C@H]1C(=O)N[C@@H](C)C(=O)N[C@@H](CC(=O)O)C(=O)N[C@@H](CCC(=O)O)C(=O)N[C@H](C(=O)N[C@@H](CC(=O)O)C(=O)NCC(=O)N[C@@H](CCCNC(=N)N)C(=O)N[C@@H](CCCNC(=N)N)C(=O)N[C@@H](CCCNC(=N)N)C(=O)N[C@@H](CCCN)C(=O)N[C@@H](CCCNC(=N)N)C(=O)N[C@@H](CCCNC(=N)N)C(=O)N[C@@H](CCCCN)C(=O)N[C@@H](CCCCN)C(=O)N[C@@H](CCCNC(=N)N)C(=O)N[C@@H](CCCCNC(=O)CN1CCN(CC(=O)O)CCN(CC(=O)O)CCN(CC(=O)O)CC1)C(N)=O)C(C)C [[^125I]LS734] (Ac-[Tyr(3-I)]LAI[Ahx]PADEVDGRRR[Orn]RRKKRK(DOTA)-NH2),efflux activity: iodinated fraction released by untreated versus treated cells,"MDA-MB-231 cells; at 3 h (post 2 h incubation and removal of excess activity), treatment SN-38 then UCN-01",higher amount of activity was released from untreated cells compared to treated cells
same,cell uptake,MDA-MB-231 cells,3.6±0.5
same,tissue uptake at 1 h,[1],115 ± 73 %ID/g
same,blood circulation,4T1luc tumors,circulated longer in blood as compared to [^125I]LS370
"^111In-labeled non-radioactive gold nanoparticle probe ({DTPA′}-GPLGVRGKGYG[Ahx]C-NH2; not fully specified (residue 13); printed as Gly-Pro-Leu-Gly-Val-Arg-Gly-Lys-Gly-Tyr-Gly-Ahx-Cys; also: 111In chelated by DTPA, Cys thiol anchored to gold nanoparticle)",^111In cleaved from the nanoparticle,MMP9 [2]; incubated with MMP9 for 48 hours,48%
same,^111In cleaved from the nanoparticle,MMP9 [2]; without MMP9,16%
same,bladder/lung uptake ratio,"MMP9 [3]; MMP9-incubated probe, 5 hours after injection",0.19±0.15
same,bladder/lung uptake ratio,MMP9 [3]; [5],0.56±0.24
same,kidney/lung uptake ratio,MMP9 [3]; [5],0.12±0.04
same,bladder/lung uptake ratio,"MMP9 [3]; control probe without MMP9, 5 hours after injection",0.03±0.003
same,bladder/lung uptake ratio,MMP9 [3]; [6],0.08±0.04
same,kidney/lung uptake ratio,MMP9 [3]; [6],0.01±0.004
^64Cu-labeled nanoparticles ({DTPA′}-GPLGVRGKGYG[Ahx]C-NH2; not fully specified (residue 13); also: DTPA chelates 64Cu),radioactivity observed in the supernatant after incubation with MMP9,"MMP9 [4]; […] incubation with MMP9, PBS, centrifugal filtration",23%
same,"radioactivity observed in the supernatant, control without MMP9","MMP9 [4]; […], without MMP9",< 5%
